Patent EP1611148B1, “NOVEL NITRILE GLYCOSIDE USEFUL AS A BIO-ENHANCER OF DRUGS AND NUTRIENTS, PROCESS OF ITS ISOLATION FROM MORINGA OLEIFERA” (Council of Scientific and Industrial Research, priority 2003, dated 2004)

Columns and labels:
B subtilis (MTCC121) = test: Bioactivity enhancement of antibiotics (killing efficiency, broth assay) against B subtilis; conditions: alone or with Niaziridin @ 1.0 µg/ml
M smegmatis (MC^2 155) = test: Bioactivity enhancement of antibiotics (killing efficiency, broth assay) against M smegmatis; conditions: alone or with Niaziridin @ 1.0 µg/ml
E.coli (CA8000) = conditions: 6 ug/mL
C.albicans = test: Enhancement of anticandidial activity of clotrimazole (broth assay)
Staphylococcus aurues = conditions: in combination with 5-Methoxy hydnocarpin (5-MHC); cited from earlier work
[1] = anaesthetized rat, 1-10 mg/ kg I.V; cited from earlier work
E.coli DH5α = test: Enhancement of bacterial transformation with pUC18 plasmid DNA, strain DH5α
Description: Overnight grown bacterial E.coli DH5α (Sambrook at al^28) cells were diluted to 10 folds in growth medium and treated with niaziridin @1-10µg/ml for 4 hours at 37°C in a shaker (200 RPM).
These log phase cells were then treated with calcium chloride to induce competence and then transformed with pUC18 plasmid DNA and plated on Luria agar plates containing 100µg/ml ampicillin.
The colonies thus appeared, on the plates for both treated and untreated cultures were scored.

E.coli CA8000 = test: Enhancement of bacterial transformation with pUC18 plasmid DNA, strain CA8000
[2] = system: Escherichia coli, CA 8000; test: Enhancement of adsorption of λ phage on bacteria; conditions: cells pretreated with niaziridin @ 1 ug/ml
Description: Overnight grown bacterial culture (Escherichia coli, CA 8000) was divided into 5 ml of aliquot each in screw cap tubes. One of the tube with the bacterial culture was treated with niaziridin to a final concentration of 1µg/ml. Both the control and the treated tubes were incubated at 37°C for 4 hours. The cultures were then infected with λ phage (MOI=10) for 10minutes at 37°C (for adsorption) followed by centrifugation at 10000 RPM for 10 minutes at 4°C.
The supernatant and the pellets for both treated and untreated cultures were then compared for the phage titer by plating on top agar containing sensitive bacteria at different dilutions.

[3] = Bioavailability test using gastro-intestinal epithelium (U-tube); format: in vitro ADME, goat; conditions: Vitamine B 12, in combination; Figure 3
Description: Specially designed U-tubes of glass consisting of two components (opposite-L type) were used in which one open end of an L-shaped was tapered to fit within the end of the other L-tube (as described in US Patent # 6,410,059). The membrane of goat gut (initial part) was stretched and fixed to act as the barrier between the two ends such that by joining the two L-tubes, a U-tube was made. Sterile distilled water was then filled in both the sides to equal height/level. The antibiotic/compound was added to the donor tube (tapered) and through spectro-photometer, the transfer of molecule was observed using UV and visible absorption maxima of the respective molecules by taking the OD at defined wavelengths (264 nm for isoniazid).

[4] = system: M.tuberculosis H37Rv (ATCC 27294); test: Bioactivity enhancement of anti-tubercular drugs, radiometric BACTEC 460 TB system; format: cell-based, Mycobacterium tuberculosis
Description: Since, the bioenhancer compound was able to enhance the activity of antibiotics against Gram (+) bacteria such as M.smegmatis, our subsequent interest was to test the compound against M.tuberculosis H37Rv (ATCC 27294) (Philipp et al 1996; Proc.Natl.Acad.Sci USA 93, 3132-3137), the causal organism of tuberculosis. To accomplish this we employed a radiometric assay using the BACTEC 460 TB system manufactured by M/S Becton Dickinson Ltd., USA. The antimycobacterial property of the drugs in combination with the bioenhancer was studied as per the recommended drug sensitivity protocol prescribed by the manufacturer (BACTEC 460 TB system: Product & Procedure Manual, MA 0029, 1996; Becton Dickinson Co., USA). Briefly the procedure is described below. • (a) The 12 B vials as provided by the manufacture were pre-tested prior to inoculation to establish the recommended CO2 atmosphere. […] After mixing thoroughly, 0.1 ml of this dilution was added into the control 12 B vial (without a drug). • (d) Biosafety precautions were taken as recommended by the manufacturer. • (e) Vials were tested daily in BACTEC 460 TB system for 12 days at approximately the same time each day as recommended by the manufacturer. The mycobacterial growth is expressed as Growth Index (GI) and compared to that of the control vials (antibiotic alone).

[5] = cells pre treated with niaziridin at 1 ug/ml
[6] = cells pre treated with niaziridin at 10 ug/ml

## CC1(C)S[C@@H]2[C@H](NC(=O)[C@H](N)c3ccccc3)C(=O)N2[C@H]1C(=O)O [Amp, ampicillin]
B subtilis (MTCC121); Amp (0.01)
  Titre: 2.9x10^8
M smegmatis (MC^2 155); Amp (0.1)
  Titre: 1.0x10^8
E.coli (CA8000)
  % Survival: 3.69%

## Clc1ccccc1C(c1ccccc1)(c1ccccc1)n1ccnc1 [Clotrimazole, clotrimazole]
C.albicans; clotrimazole 0.5ug/ml, alone or with Niaziridin 10ug/ml, 36 h
  Cfu / ml at 36 h: 23.6 x 10^5 Cfu / ml

## CCn1cc(C(=O)O)c(=O)c2ccc(C)nc21 [Nal, nalidixic acid]
B subtilis (MTCC121); Nal (2.0)
  Titre: 3.1x10^7
M smegmatis (MC^2 155); Nal (1.0)
  Titre: 3.7x10^8

## CO[C@H]1/C=C/O[C@@]2(C)Oc3c(C)c(O)c4c(O)c(c(/C=N/N5CCN(C)CC5)c(O)c4c3C2=O)NC(=O)/C(C)=C\C=C\[C@H](C)[C@H](O)[C@@H](C)[C@@H](O)[C@@H](C)[C@H](OC(C)=O)[C@@H]1C [Rif, rifampicin]
B subtilis (MTCC121); Rif (0.05)
  Titre: 2.1x10^8
M smegmatis (MC^2 155); Rif (0.05)
  Titre: 1.3x10^7

## CN(C)[C@@H]1C(=O)C(C(N)=O)=C(O)[C@@]2(O)C(=O)C3=C(O)c4c(O)cccc4[C@@](C)(O)[C@H]3C[C@@H]12 [Tet, tetracycline]
B subtilis (MTCC121); Tet (1.0)
  Titre: 7.0x10^7
M smegmatis (MC^2 155); Tet (2.0)
  Titre: 1.2x10^8

## COc1ccc2cc3[n+](cc2c1OC)CCc1cc2c(cc1-3)OCO2 [berberine]
Staphylococcus aurues
  increase of antimicrobial activity of berberine: 200 folds

## CCOC(=S)NCc1ccc(OC2OC(C)C(O)C(O)C2O)cc1 (centres unmarked) [niazimicin]
[1]
  hypotensive and bradycardiac effect: produced hypotensive and bradycardiac effect

## COC(=S)NCc1ccc(O[C@@H]2O[C@@H](C)[C@H](O)[C@@H](O)[C@H]2O)cc1 [niazinin A]
[1]
  hypotensive and bradycardiac effect: produced hypotensive and bradycardiac effect

## niaziminin A
[1]
  hypotensive and bradycardiac effect: produced hypotensive and bradycardiac effect

## niaziminin B
[1]
  hypotensive and bradycardiac effect: produced hypotensive and bradycardiac effect

## niazinin B
[1]
  hypotensive and bradycardiac effect: produced hypotensive and bradycardiac effect

## niaziridin
E.coli DH5α; [5]
  Fold enhancement in DNA transformation: 1.9 Fold
  Titre (10^4): 16.0 10^4
E.coli DH5α; [6]
  Fold enhancement in DNA transformation: 2.3 Fold
  Titre (10^4): 20.0 10^4
E.coli CA8000; [5]
  Fold enhancement in DNA transformation: 1.9 Fold
  Titre (10^3): 8.30 10^3
E.coli CA8000; [6]
  Fold enhancement in DNA transformation: 5.5 Fold
  Titre (10^3): 24.0 10^3
[2]; MOI 5
  Pellet (10^7pfu): 7.7 10^7pfu
  Supernatant (10^7pfu): 7.7 10^7pfu
[2]; MOI 10
  Pellet (10^7pfu): 18.0 10^7pfu
  Supernatant (10^7pfu): 8.0 10^7pfu
[3]
  uptake of nutrients through the intestinal gut membrane: able to facilitate the uptake of nutrients like Vitamine B 12 through the intestinal gut membrane
[4]; in combination with isoniazid, Figure 2
  enhancement of antimycobacterial activity of isoniazid (Growth Index): able to enhance the antimycobacterial activity
[4]; in combination with rifampicin, Figure 1
  enhancement of antimycobacterial activity of rifampicin (Growth Index): able to enhance the antimycobacterial activity
C.albicans; in combination, observed only at 10ug/ml of the compound
  enhancement of the antifungal activity of clotrimazole: 5-6 folds
